From US11725037B2, “Peptide dual agonists of GIPR and GLP2R” (University of Copenhagen, priority 2017, dated 2023)
Like-named read-outs stand apart in the source and are kept apart here. Ends that are not written are not given here.

Tests used:
human GLP-2 receptor = biological target: T1, human GLP-2 receptor (Homo sapiens, UniProt O95838); test: cAMP accumulation assay (HitHunter cAMP XS) in transiently transfected COS-7 cells expressing the human GLP-2 receptor; type: cell-based; details: for Emax at 10 µM: COS-7, read-out: Emax (10 μM), GLP-2 receptor; for fold (fold change of native GLP-2), GLP-2 receptor: EC50 relative to native GLP-2
T1 construct: host or cells: COS-7 (transient, calcium phosphate; pCMV-Script vector)
T1 sequence (O95838 1-553): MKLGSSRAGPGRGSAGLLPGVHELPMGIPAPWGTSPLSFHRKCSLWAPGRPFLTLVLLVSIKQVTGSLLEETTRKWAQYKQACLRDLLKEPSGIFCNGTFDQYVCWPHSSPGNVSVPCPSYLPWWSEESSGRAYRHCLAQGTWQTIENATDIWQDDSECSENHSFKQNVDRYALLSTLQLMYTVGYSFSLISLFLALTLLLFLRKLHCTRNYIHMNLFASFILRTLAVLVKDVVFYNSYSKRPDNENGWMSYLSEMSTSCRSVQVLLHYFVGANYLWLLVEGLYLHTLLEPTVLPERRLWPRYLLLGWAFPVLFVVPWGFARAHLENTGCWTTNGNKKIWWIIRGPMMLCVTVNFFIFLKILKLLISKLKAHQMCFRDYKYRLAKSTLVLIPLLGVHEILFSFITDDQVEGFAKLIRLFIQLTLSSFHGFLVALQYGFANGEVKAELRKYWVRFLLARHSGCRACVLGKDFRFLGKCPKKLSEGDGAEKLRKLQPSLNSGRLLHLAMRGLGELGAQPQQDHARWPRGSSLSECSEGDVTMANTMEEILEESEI
Description: (§1) The day after, the cells were washed twice with Hepes buffered saline (HBS) buffer and incubated with HBS and 1 mM 3-isobutyl-1-methylxanthine (IBMX) for 30 min at 37° C. Ligands were added and incubated for 30 min at 37° C. The HitHunter™ cAMP XS assay (DiscoveRx) was carried out according to the manufacturer's instructions.

human GIP receptor = biological target: T2, human GIP receptor (Homo sapiens, UniProt P48546); test: cAMP accumulation assay (HitHunter cAMP XS) in transiently transfected COS-7 cells expressing the human GIP receptor; type: cell-based; details: for Emax at 10 µM: COS-7, read-out: Emax (10 μM), GIP receptor; for EC50: cAMP, COS-7; for fold (fold change of native GIP), GIP receptor: EC50 relative to native GIP
T2 construct: host or cells: COS-7 (transient, calcium phosphate; pCMV-Script vector)
T2 sequence (P48546 22-466): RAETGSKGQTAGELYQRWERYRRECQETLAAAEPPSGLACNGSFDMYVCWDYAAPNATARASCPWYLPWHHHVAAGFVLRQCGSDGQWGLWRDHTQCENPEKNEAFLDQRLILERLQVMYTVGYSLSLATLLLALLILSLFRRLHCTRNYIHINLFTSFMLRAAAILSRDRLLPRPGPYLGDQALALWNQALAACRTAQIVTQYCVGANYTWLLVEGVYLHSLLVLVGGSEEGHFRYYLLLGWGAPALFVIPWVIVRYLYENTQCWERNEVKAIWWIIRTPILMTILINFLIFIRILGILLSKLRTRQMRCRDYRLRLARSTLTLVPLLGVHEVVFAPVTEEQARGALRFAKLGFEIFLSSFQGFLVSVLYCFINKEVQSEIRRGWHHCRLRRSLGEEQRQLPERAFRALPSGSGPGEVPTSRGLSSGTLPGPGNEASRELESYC
Description: as §1

[1] = logEC50, GLP-2 receptor, Table 2, cAMP, COS-7
[2] = logEC50, GLP-2 receptor, Table 1, cAMP, COS-7
[3] = logEC50, GIP receptor, Table 1, log value

Emax at 10 µM (human GLP-2 receptor) [%]	EC50 (human GLP-2 receptor; [1]) [nM]	Emax at 10 µM (human GIP receptor) [%]	EC50 (human GIP receptor; EC50(nM), GIP receptor, Table 2) [nM]	EC50 (human GIP receptor; logEC50, GIP receptor, Table 2, log value) [nM]	fold (fold change of native GLP-2), GLP-2 receptor (human GLP-2 receptor; Table 1) [fold]	EC50 (human GLP-2 receptor; [2]) [nM]	fold (fold change of native GIP), GIP receptor (human GIP receptor; Table 1) [fold]	EC50 (human GIP receptor; [3]) [nM]	fold (fold change of native GLP-2), GLP-2 receptor (human GLP-2 receptor; Table 2) [fold]	fold (fold change of native GIP), GIP receptor (human GIP receptor; Table 2) [fold]	EC50 (human GLP-2 receptor; EC50(nM), GLP-2 receptor, Table 1, cAMP, COS-7) [nM]	Compound	EC50 (human GLP-2 receptor) [nM]
82	17.4	115	1.82	1.82								CCCCCCCCCCCCCCCC(=O)N[C@@H](Cc1c[nH]cn1)C(=O)N[C@@H](C)C(=O)N[C@@H](CC(=O)O)C(=O)NCC(=O)N[C@H](C(=O)N[C@@H](Cc1ccccc1)C(=O)N[C@H](C(=O)N[C@@H](CO)C(=O)N[C@@H](CC(=O)O)C(=O)N[C@@H](Cc1ccc(O)cc1)C(=O)N[C@@H](CO)C(=O)N[C@H](C(=O)N[C@H](C(=O)N[C@@H](CC(C)C)C(=O)N[C@@H](CC(=O)O)C(=O)N[C@@H](CC(N)=O)C(=O)N[C@@H](CC(C)C)C(=O)N[C@@H](C)C(=O)N[C@@H](C)C(=O)N[C@@H](CCCNC(=N)N)C(=O)N[C@@H](CC(=O)O)C(=O)N[C@@H](Cc1ccccc1)C(=O)N[C@H](C(=O)N[C@@H](CC(N)=O)C(=O)N[C@@H](Cc1c[nH]c2ccccc12)C(=O)N[C@@H](CC(C)C)C(=O)N[C@H](C(=O)N[C@@H](CCC(N)=O)C(=O)N[C@H](C(=O)N[C@@H](CCCCN)C(=O)N[C@H](C(=O)N[C@H](C(=O)N[C@@H](CCCCN)C(=O)O)[C@@H](C)O)[C@@H](C)CC)[C@@H](C)O)[C@@H](C)CC)[C@@H](C)CC)[C@@H](C)CC)[C@@H](C)O)[C@@H](C)CC)[C@@H](C)O [Co-agonist 29]	
87		95			20	24	36	3.16				HGDGTFISDYSTILDNLAARDFINWLIQTKITD [Co-agonist 11]	
91		91							89	19		CCCCCCCCCCCCCCCC(=O)NCCCC[C@H](NC(=O)[C@@H](NC(=O)[C@H](CCC(N)=O)NC(=O)[C@@H](NC(=O)[C@H](CC(C)C)NC(=O)[C@H](Cc1c[nH]c2ccccc12)NC(=O)[C@H](CC(N)=O)NC(=O)[C@@H](NC(=O)[C@H](Cc1ccccc1)NC(=O)[C@H](CC(=O)O)NC(=O)[C@H](CCCNC(=N)N)NC(=O)[C@H](C)NC(=O)[C@H](C)NC(=O)[C@H](CC(C)C)NC(=O)[C@H](CC(N)=O)NC(=O)[C@H](CC(=O)O)NC(=O)[C@H](CC(C)C)NC(=O)[C@@H](NC(=O)[C@@H](NC(=O)[C@H](CO)NC(=O)[C@H](Cc1ccc(O)cc1)NC(=O)[C@H](CC(=O)O)NC(=O)[C@H](CO)NC(=O)[C@@H](NC(=O)[C@H](Cc1ccccc1)NC(=O)[C@@H](NC(=O)CNC(=O)[C@H](CC(=O)O)NC(=O)[C@H](C)NC(=O)[C@@H](N)Cc1c[nH]cn1)[C@@H](C)O)[C@@H](C)CC)[C@@H](C)O)[C@@H](C)CC)[C@@H](C)CC)[C@@H](C)CC)[C@@H](C)O)C(=O)N[C@H](C(=O)N[C@H](C(=O)N[C@@H](CCCCN)C(=O)O)[C@@H](C)O)[C@@H](C)CC [Co-agonist 31]	
74		95			68	87.1	6.7					HADGTFISDYSTILDNLAARDFINWLIQTKGTD [Co-agonist 16]	
99		91			9.2	11.2	135	12				HADGTFSSDYSTILDNLAARDFINWLIQTKITD [Co-agonist 13]	
88		95			21	24.5	4.5					HADGTFISDYSTILDNLAARDFINWLIQTKIKD [Co-agonist 17]	
73	36.3	100							30	7.1		CCCCCCCCCCCC(=O)NCCCC[C@H](NC(=O)[C@@H](NC(=O)[C@H](CCC(N)=O)NC(=O)[C@@H](NC(=O)[C@H](CC(C)C)NC(=O)[C@H](Cc1c[nH]c2ccccc12)NC(=O)[C@H](CC(N)=O)NC(=O)[C@@H](NC(=O)[C@H](Cc1ccccc1)NC(=O)[C@H](CC(=O)O)NC(=O)[C@H](CCCNC(=N)N)NC(=O)[C@H](C)NC(=O)[C@H](C)NC(=O)[C@H](CC(C)C)NC(=O)[C@H](CC(N)=O)NC(=O)[C@H](CC(=O)O)NC(=O)[C@H](CC(C)C)NC(=O)[C@@H](NC(=O)[C@@H](NC(=O)[C@H](CO)NC(=O)[C@H](Cc1ccc(O)cc1)NC(=O)[C@H](CC(=O)O)NC(=O)[C@H](CO)NC(=O)[C@@H](NC(=O)[C@H](Cc1ccccc1)NC(=O)[C@@H](NC(=O)CNC(=O)[C@H](CC(=O)O)NC(=O)[C@H](C)NC(=O)[C@@H](N)Cc1c[nH]cn1)[C@@H](C)O)[C@@H](C)CC)[C@@H](C)O)[C@@H](C)CC)[C@@H](C)CC)[C@@H](C)CC)[C@@H](C)O)C(=O)N[C@H](C(=O)N[C@H](C(=O)N[C@@H](CCCCN)C(=O)O)[C@@H](C)O)[C@@H](C)CC [Co-agonist 30]	
71	20	100							17	8.9		CCCCCCCCCCCCCCCC(=O)NCCCC[C@H](NC(=O)CNC(=O)[C@H](CCCCN)NC(=O)[C@@H](NC(=O)[C@H](CCC(N)=O)NC(=O)[C@@H](NC(=O)[C@H](CC(C)C)NC(=O)[C@H](Cc1c[nH]c2ccccc12)NC(=O)[C@H](CC(N)=O)NC(=O)[C@@H](NC(=O)[C@H](Cc1ccccc1)NC(=O)[C@H](CC(=O)O)NC(=O)[C@H](CCCNC(=N)N)NC(=O)[C@H](C)NC(=O)[C@H](C)NC(=O)[C@H](CC(C)C)NC(=O)[C@H](CC(N)=O)NC(=O)[C@H](CC(=O)O)NC(=O)[C@H](CC(C)C)NC(=O)[C@@H](NC(=O)[C@@H](NC(=O)[C@H](CO)NC(=O)[C@H](Cc1ccc(O)cc1)NC(=O)[C@H](CC(=O)O)NC(=O)[C@H](CO)NC(=O)[C@@H](NC(=O)[C@H](Cc1ccccc1)NC(=O)[C@@H](NC(=O)CNC(=O)[C@H](CC(=O)O)NC(=O)[C@H](C)NC(=O)[C@@H](N)Cc1c[nH]cn1)[C@@H](C)O)[C@@H](C)CC)[C@@H](C)O)[C@@H](C)CC)[C@@H](C)CC)[C@@H](C)CC)[C@@H](C)O)C(=O)N[C@@H](CCCCN)C(=O)O [Co-agonist 36]	
80		98										HADGTFSSDYSTILDNLAAKDFINWLIQTKITD [Co-agonist 20]	
90		83			21	25.7	427	38			25	HAEGSFISDYSTILDNLAARDFINWLIQTKITD [Co-agonist 4]	

Compound	Emax at 10 µM (human GLP-2 receptor) [%]	EC50 (human GLP-2 receptor; [1]) [nM]	Emax at 10 µM (human GIP receptor) [%]	EC50 (human GIP receptor; EC50(nM), GIP receptor, Table 2) [nM]	EC50 (human GIP receptor; logEC50, GIP receptor, Table 2, log value) [nM]	fold (fold change of native GLP-2), GLP-2 receptor (human GLP-2 receptor; Table 1) [fold]	EC50 (human GLP-2 receptor; [2]) [nM]	fold (fold change of native GIP), GIP receptor (human GIP receptor; Table 1) [fold]	EC50 (human GIP receptor; [3]) [nM]	fold (fold change of native GLP-2), GLP-2 receptor (human GLP-2 receptor; Table 2) [fold]	fold (fold change of native GIP), GIP receptor (human GIP receptor; Table 2) [fold]	EC50 (human GLP-2 receptor; EC50(nM), GLP-2 receptor, Table 1, cAMP, COS-7) [nM]	EC50 (human GLP-2 receptor) [nM]
HAEGTFISDYSTILDNIHQQDFINWLIQTKITD [Co-agonist 8]	22		100					66					> 10000
HAEGTFISDYSTILDNLAARDFINWLIQTKGKK [Co-agonist 10]	77		100			18		61					21.9
